Consider 13 compounds from patent US20120202856A1, “SUBSTITUTED BENZIMDAZOLE DERIVATIVES USEFUL AS TRPM8 RECEPTOR MODULATORS” (priority 2011, published 2012).

Several values for one entry are separate records, joined by “and”; a condition that tells them apart may be missing. Equal entries are not always repeated. Structures can show the parent of a compound that is named as a salt.

This assay deals with T1, canine TRPM8 (Canis lupus familiaris, UniProt Q1A7N1).
T1 construct: expressed in transfected cells
T1 sequence (Q1A7N1 1-1104): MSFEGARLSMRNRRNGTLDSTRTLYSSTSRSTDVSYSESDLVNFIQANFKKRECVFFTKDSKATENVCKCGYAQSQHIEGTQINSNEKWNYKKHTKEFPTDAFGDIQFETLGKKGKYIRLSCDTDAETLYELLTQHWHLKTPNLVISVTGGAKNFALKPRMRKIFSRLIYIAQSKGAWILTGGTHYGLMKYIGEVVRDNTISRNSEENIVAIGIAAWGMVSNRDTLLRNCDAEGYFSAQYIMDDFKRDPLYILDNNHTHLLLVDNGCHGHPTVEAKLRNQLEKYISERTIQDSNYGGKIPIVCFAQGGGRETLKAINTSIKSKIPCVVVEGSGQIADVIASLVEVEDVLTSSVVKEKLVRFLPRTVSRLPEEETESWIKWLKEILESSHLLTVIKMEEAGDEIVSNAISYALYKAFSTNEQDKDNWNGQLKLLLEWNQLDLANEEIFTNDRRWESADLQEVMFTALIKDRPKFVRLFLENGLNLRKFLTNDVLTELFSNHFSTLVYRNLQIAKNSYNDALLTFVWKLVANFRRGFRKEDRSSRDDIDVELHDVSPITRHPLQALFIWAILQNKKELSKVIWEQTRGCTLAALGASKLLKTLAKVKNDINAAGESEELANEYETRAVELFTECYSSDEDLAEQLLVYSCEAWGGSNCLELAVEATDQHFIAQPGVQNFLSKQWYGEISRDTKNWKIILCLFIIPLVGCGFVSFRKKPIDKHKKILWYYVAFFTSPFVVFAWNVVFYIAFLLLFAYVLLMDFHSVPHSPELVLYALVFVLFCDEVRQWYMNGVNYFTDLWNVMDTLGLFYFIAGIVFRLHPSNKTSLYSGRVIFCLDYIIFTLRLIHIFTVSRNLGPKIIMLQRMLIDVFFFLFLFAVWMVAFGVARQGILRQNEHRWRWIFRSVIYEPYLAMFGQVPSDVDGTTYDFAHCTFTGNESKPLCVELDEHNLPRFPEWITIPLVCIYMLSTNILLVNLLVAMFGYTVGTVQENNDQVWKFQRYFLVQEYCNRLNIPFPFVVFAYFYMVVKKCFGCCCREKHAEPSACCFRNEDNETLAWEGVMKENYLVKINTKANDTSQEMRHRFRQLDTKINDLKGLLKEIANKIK
Briefly: In Vitro Canine TRPM8 Functional Assay (intracellular Ca2+ fluorescence, icilin activation, HEK293 cells). Format: cell-based. The note with it: for IC50: HEK293 cells expressing canine TRPM8, icilin activation, individually measured values (batches/salt forms), read-out: IC50 (nM), in vitro TRP M8 Activity; for % Inh (%) @0.2 μM, in vitro TRP M8 Activity: 0.2 μM test compound, sodium salt; for % Inh (%) @0.2 μM, in vitro TRP M8 Activity / inhibition at 0.2 µM: individually measured values; for inhibition at 0.2 µM: HEK293, 0.2 μM test compound, read-out: % Inh (%) @0.2 μM, in vitro TRP M8 Activity. In outline:
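HEK293 cells expressing canine TRPM8 loaded with Calcium 3 dye, then stimulated with icilin; intracellular Ca2+ rise read on FLIPR or FDSS. Peak fluorescence minus basal normalized to percent maximal response; IC50 from sigmoidal nonlinear regression of quadruplicate wells.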

As to `Cn1nc(C(C)(C)C)nc1-c1nc2cc(-c3ccccc3C(F)(F)F)cc(C(F)(F)F)c2[nH]1` [Compound 192, 2-(5-tert-Butyl-2-methyl-2H-[1,2,4]triazol-3-yl)-7-trifluoromethyl-5-(2-trifluoromethyl-phenyl)-1H-benzimidazole sodium salt], the IC50 (commonly the midpoint of a concentration-inhibition curve) was 7.5 nM. The same measure, in the same setting: the result for `COc1cccc(OC)c1-c1ccc2[nH]c(-c3cc(C(C)(C)C)nn3C)nc2c1` [Compound 54, 2-(5-tert-Butyl-2-methyl-2H-pyrazol-3-yl)-5-(2,6-dimethoxy-phenyl)-1H-benzimidazole trifluoroacetic acid salt] reads 3.1 nM. As for `Cl.Cn1nc(C(C)(C)C)c(Cl)c1-c1nc2cc(-c3ccccc3F)cc(Cl)c2[nH]1` [Compound 114, 2-(5-tert-Butyl-4-chloro-2-methyl-2H-pyrazol-3-yl)-7-chloro-5-(2-fluoro-phenyl)-1H-benzimidazole sodium salt], the “% Inh (%) @0.2 μM, in vitro TRP M8 Activity” value is 100%; the inhibition at 0.2 µM amounted to 99%; the 50% inhibitory concentration (IC50) is 4.7 nM and 10.3 nM and 10.2 nM. In the case of `Cc1nc(C(C)(C)C)oc1-c1nc2cc(-c3ccccc3F)cc(C(F)(F)F)c2[nH]1` [Compound 175, 2-(2-tert-Butyl-4-methyl-oxazol-5-yl)-5-(2-fluoro-phenyl)-7-trifluoromethyl-1H-benzimidazole hydrochloride], the inhibition at 0.2 µM turned out to be 48%. In the case of `Cc1c(C(C)(C)C)nn(C)c1-c1nc2cc(-c3c(F)cccc3F)ccc2[nH]1` [Compound 95, 2-(5-tert-Butyl-2,4-dimethyl-2H-pyrazol-3-yl)-5-(2,6-difluoro-phenyl)-1H-benzimidazole hydrochloride], the half-maximal inhibitory concentration (IC50) was determined as 5.7 nM. For the compound `CC(C)(C)c1cc(-c2nc3cc(-c4c(F)cccc4OC(F)(F)F)ccc3[nH]2)on1` [Compound 103, 2-(3-tert-Butyl-isoxazol-5-yl)-5-(2-fluoro-6-trifluoromethoxy-phenyl)-1H-benzimidazole hydrochloride], the concentration for half-maximal inhibition (IC50) worked out at 4.5 nM. The same measure, in the same setting: with `CC(C)n1nc(C(C)(C)C)cc1-c1nc2cc(-c3ccccc3C(F)(F)F)ccc2[nH]1` [Compound 46, 2-(5-tert-Butyl-2-isopropyl-2H-pyrazol-3-yl)-5-(2-trifluoromethylphenyl)-1H-benzimidazole sodium salt] the figure was 21 nM. `Cn1nc(C(C)(C)C)c(Cl)c1-c1nc2cc(-c3ccccc3F)cc(C(F)(F)F)c2[nH]1` [Compound 127, 2-(5-tert-Butyl-4-chloro-2-methyl-2H-pyrazol-3-yl)-5-(2-fluoro-phenyl)-7-trifluoromethyl-1H-benzimidazole hydrochloride]: the inhibition at 0.2 µM was 99%; the IC50 was 11.5 nM and 6.3 nM. Turning to `Cn1nc(C(F)(F)F)cc1-c1nc2cc(-c3ccccc3C(F)(F)F)ccc2[nH]1` [Compound 40, 2-(5-Trifluoromethyl-2-methyl-2H-pyrazol-3-yl)-5-(2-trifluoromethylphenyl)-1H-benzimidazole sodium salt], the IC50 came out at 81.5 nM. On to `FC(F)(F)Oc1ccccc1-c1ccc2nc(-c3cc(C4CCCCC4)no3)[nH]c2c1` [Compound 25, 2-(3-Cyclohexylisoxazol-5-yl)-6-(2-trifluoromethoxyphenyl)-1H-benzimidazole hydrochloride], for which the inhibition at 0.2 µM is 63%. Consider `Cn1nc(C(C)(C)C)c(C#N)c1-c1nc2cc(-c3ccccc3F)cc(C(F)(F)F)c2[n-]1.[Na+]` [Compound 147], for which the “% Inh (%) @0.2 μM, in vitro TRP M8 Activity” value is 98%.

As for `Cc1oc(C(C)(C)C)nc1-c1nc2cc(-c3ccccc3OC(F)(F)F)cc(Cl)c2[nH]1` [Compound 159, 2-(2-tert-Butyl-5-methyl-oxazol-4-yl)-7-chloro-5-(2-trifluoromethoxy-phenyl)-1H-benzimidazole hydrochloride], the inhibition at 0.2 µM was 19%. For the compound `CC(CO)n1nc(C(C)(C)C)cc1-c1nc2cc(-c3ccccc3C(F)(F)F)ccc2[nH]1` (stereo not shown) [Compound 101, 2-{3-tert-Butyl-5-[5-(2-trifluoromethylphenyl)-1H-benzimidazol-2-yl]-pyrazol-1-yl}-propan-1-ol hydrochloride], the inhibition at 0.2 µM amounted to 33%.
